Among the test systems are CAKI-1 renal; DLD-1 colon; DMS 114 small cell lung; DMS 273 small cell lung; HCC-2998 colon; HOP-18 NSCLC; KM20L2 colon; LOX IMVI melanoma; M19-MEL melanoma; SF-295 CNS; SK-OV-3 ovarian; SNB-75 CNS; SNB-78 CNS; U251 CNS; XF 498 CNS.
Assay in all cases: NCI tumour cell line growth inhibition, 48 h

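Cells were grown in 96-well plates and exposed to each compound for 48 hours at five concentrations; endpoints were interpolated linearly between bracketing concentrations, or set to the highest concentration if not reached. Definition used: TGI = concentration required for complete inhibition of growth.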 A value given as a limit tells only on which side of the number the result lay.

Turning to `CCSC(=Nc1ccccc1)SC`, the TGI in the test on CAKI-1 renal, in the test with DLD-1 colon, with DMS 114 small cell lung, in the test with DMS 273 small cell lung, in the test with HCC-2998 colon and with HOP-18 NSCLC was > 100 µM throughout. The TGI in the test on KM20L2 colon, with LOX IMVI melanoma, in the test with M19-MEL melanoma, in the test on SF-295 CNS, with SK-OV-3 ovarian and with SNB-75 CNS was > 100 µM each time. Moreover, the TGI in the test on SNB-78 CNS, with U251 CNS and with XF 498 CNS was > 100 µM each time.
For the compound `CN(C)CCOc1cc2c(c3ccccc13)-c1ccccc1C2=O`, the TGI is 6.31 µM with CAKI-1 renal; 4.01 µM in the test on DLD-1 colon; 2.65 µM in the test on DMS 114 small cell lung; 1.85 µM in the test with DMS 273 small cell lung; 4.68 µM with HCC-2998 colon; 8.58 µM in the test with HOP-18 NSCLC. Moreover, the TGI turned out to be 5.3 µM in the test with KM20L2 colon; 2.53 µM with LOX IMVI melanoma; 2.89 µM with M19-MEL melanoma; 4.42 µM in the test on SF-295 CNS; 24.6 µM in the test with SK-OV-3 ovarian; 4.64 µM in the test on SNB-75 CNS. For the same compound, the TGI came to 23 µM in the test with SNB-78 CNS, 6.58 µM in the test with U251 CNS and 3.28 µM in the test on XF 498 CNS.

For the origin of these results see PubChem BioAssay (NCI).
